For data set [1] the following is noted: wood treated only with a chelating agent; as described in WO 0123154; cited from earlier work.
Data set [2] concerns Aureobasidium pullulans and Sclerophoma pithyophila (pooled suspension). Conditions: literature reference, 1.0% of NHA; cited from earlier work.
The test system of the next data set is rot fungi. In words: Rot resistance / wood protection class (EN 350-1), fungus not specified. The data set is classed as cell-based. As to conditions: treated wood.

Protocol for rot fungi: Rot testing was carried out according to the EN 113 standard. 10 test samples impregnated with respective agents for each of the three rot fungi were used in the test. A sample made of surface wood of pine was placed as a control with the impregnated test samples to the same container for the rot test. Activity of each fungus was tested with eight test samples (so-called infection test). Said test samples for the fungus activity testing were placed in respective containers for the rot test without impregnated test samples.
In the method, an X value was calculated for each impregnation batch and for each fungus, said X value describing the ratio of the mass loss of the impregnated test samples to that of the unimpregnated control samples. X value was calculated by dividing the corrected mass loss of the impregnated test samples by that of the unimpregnated control samples. The calculation was based on mean values. Based on the result obtained, the rot resistance class was determined as follows for the fungus with the highest rot activity:

Take `O=C(O)CN(CCN(CC(=O)O)CC(=O)O)CC(=O)O` [EDTA, ethylenediaminetetraacetic acid]: the “amounts washed out of wood, in words” value in data set [1] is “so high”.

Consider `O=C1c2cccc3cccc(c23)C(=O)N1O` [NHA, N,N-naphthaloylhydroxylamine], for which the “Microbial growth 0 to 5” value in data set [2] is listed as 4 (high amounts of microbial growth (more than 40% of the surface of the test sample covered by microbial growth)).

Regarding `O=C[O-].O=C[O-].[Ca+2]` [calcium formate], the “wood protection class (rot protection standard EN 350-1, classes 1-5)” value with rot fungi is recorded as 3 (Class 3=reasonably resistant 0.30<X≦0.60).

These data come from US8399106B2, “Composition and method for treating wood” (Kemira OyJ, priority 2007, dated 2013).
